Source: patent publication US20240132464A1, “HETEROCYCLIC COMPOUNDS AS E3 LIGASE INHIBITORS” (Accutar Biotechnology Inc., priority 2022, published 2024)

Biological target: T1, GID4 (Uniprot ID: Q81VV7, residues 124-289) (Homo sapiens, UniProt Q8IVV7)
T1 construct: GID4 (Uniprot ID: Q81VV7, residues 124-289)
T1 sequence (Q8IVV7 124-289): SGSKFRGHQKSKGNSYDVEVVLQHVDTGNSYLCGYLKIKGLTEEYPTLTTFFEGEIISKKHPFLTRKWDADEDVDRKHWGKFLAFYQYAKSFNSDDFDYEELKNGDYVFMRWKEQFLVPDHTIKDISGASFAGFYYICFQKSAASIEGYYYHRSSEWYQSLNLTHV
Assay: GID4 competitive binding assay (AlphaScreen, GID4/degron peptide PGLW)
Settings: 24 nM GID4, 48 nM biotinylated degron peptide PGLW, 4° C., read-out: IC50 (Inhibition of GID4/Degron binding by test compounds)
Method in brief: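 Displacement of biotin-tagged degron tetrapeptide PGLW (48 nM) from C-terminally 6His-tagged GID4 124-289 (24 nM) read by AlphaScreen proximity signal. Compound incubation 2 h, then beads 1 h, all at 4 °C, pH 7.5, 2% DMSO final; background-corrected inhibition fitted with variable slope for IC50.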

IC50 | Structure (SMILES)
> 5000 nM | CC(C)c1cc(N2CCOC(c3cnc4ccccn34)C2)nc(N)n1 (single isomer, unassigned) [Compound 157, (S/R)-4-(2-(imidazo[1,2-a]pyridin-3-yl)morpholino)-6-isopropylpyrimidin-2-amine]
< 500 nM | CN(C)CCCNC(=O)c1ccc(-c2cc(O)c3ncccc3c2)cc1N [Compound 312, 2-amino-N-(3-(dimethylamino)propyl)-4-(8-hydroxyquinolin-6-yl)benzamide]
500 to 5000 nM | CC(C)c1cc(N2CCN[C@@H](c3cc(C(F)(F)F)ccc3Br)C2)nc(N)n1 (racemic) [Compound 14, (S/R)-4-(3-(2-bromo-5-(trifluoromethyl)phenyl)piperazin-1-yl)-6-isopropylpyrimidin-2-amine]
500 to 5000 nM | Cc1c(-c2ccc(Br)c(C3CN(c4cc(N)nc(N)n4)CCN3)c2)cnn1C (single isomer, unassigned) [Compound 4, (R/S)-6-(3-(2-bromo-5-(1,5-dimethyl-1H-pyrazol-4-yl)phenyl)piperazin-1-yl)pyrimidine-2,4-diamine]
500 to 5000 nM | CN(C)CCCNC(=O)c1ccc(-c2cc(O)c3nccc(N)c3c2)cc1 [Compound 265, 4-(4-amino-8-hydroxyquinolin-6-yl)-N-(3-(dimethylamino)propyl)benzamide]
> 5000 nM | Nc1cc(N2CCNC(c3cnc4ccccn34)C2)nc(N)n1 (racemic) [Compound 119, (S/R)-6-(3-(imidazo[1,2-a]pyridin-3-yl)piperazin-1-yl)pyrimidine-2,4-diamine]
> 5000 nM | CNc1cc(N2CCCC(n3nc4ccccc4n3)C2)nc(N)n1 (centres unmarked) [Compound 259, 6-(3-(2H-benzo[d][1,2,3]triazol-2-yl)piperidin-1-yl)-N4-methylpyrimidine-2,4-diamine]
< 500 nM | CN(C)CCCNC(=O)c1cc(-c2cc(O)c3ncccc3c2)c[nH]1 [Compound 269, N-(3-(dimethylamino)propyl)-4-(8-hydroxyquinolin-6-yl)-1H-pyrrole-2-carboxamide]
< 500 nM | COC(=O)c1ccc(Br)c(C2CN(c3cc(N)nc(N)n3)CCN2)c1 (centres unmarked) [Compound 38, methyl 4-bromo-3-(4-(2,6-diaminopyrimidin-4-yl)piperazin-2-yl)benzoate]
< 500 nM | c1ccn2c(C3CCCN(c4ccnc5[nH]cnc45)C3)cnc2c1 (centres unmarked) [Compound 62, 7-(3-(imidazo[1,2-a]pyridin-3-yl)piperidin-1-yl)-3H-imidazo[4,5-b]pyridine]
500 to 5000 nM | CNc1cc(N2CCC[C@@H](c3ccccc3Br)C2)nc(NC)n1 (stereo in doubt) [Compound 84, (S/R)-6-(3-(2-bromophenyl)piperidin-1-yl)-N2,N4-dimethylpyrimidine-2,4-diamine]
> 5000 nM | CN(C)CCCNC(=O)c1cccc(-c2ccc3ccnc(N)c3c2)c1 [Compound 348, 3-(1-aminoisoquinolin-7-yl)-N-(3-(dimethylamino)propyl)benzamide]
> 5000 nM | Nc1cc(N2CCCC(n3c(=O)[nH]c4ccccc43)C2)nc(N)n1 (centres unmarked) [Compound 257, 1-(1-(2,6-diaminopyrimidin-4-yl)piperidin-3-yl)-1,3-dihydro-2H-benzo[d]imidazol-2-one]
> 5000 nM | Nc1cc(N2CCCC(c3ccn[nH]3)C2)nc(N)n1 (centres unmarked) [Compound 193, 6-(3-(1H-pyrazol-5-yl)piperidin-1-yl)pyrimidine-2,4-diamine]
< 500 nM | CC(C)c1cc(N2CCNC(c3ccccc3I)C2)nc(N)n1 (centres unmarked) [Compound 176, 4-(3-(2-iodophenyl)piperazin-1-yl)-6-isopropylpyrimidin-2-amine]
500 to 5000 nM | CNc1cc(N2CCC[C@H](c3ccccc3Br)C2)nc(N)n1 (stereo in doubt) [Compound 86, (R/S)-6-(3-(2-bromophenyl)piperidin-1-yl)-N4-methylpyrimidine-2,4-diamine]
> 5000 nM | Nc1nc(N2CCCC(c3ccn[nH]3)C2)c2cc[nH]c2n1 (centres unmarked) [Compound 205, 4-(3-(1H-pyrazol-5-yl)piperidin-1-yl)-7H-pyrrolo[2,3-d]pyrimidin-2-amine]
500 to 5000 nM | Nc1nc(NC2CC2)cc(N2CCN(CCO)C(c3ccccc3Br)C2)n1 (single isomer, unassigned) [Compound 44, (R/S)-2-(4-(2-amino-6-(cyclopropylamino)pyrimidin-4-yl)-2-(2-bromophenyl)piperazin-1-yl)ethan-1-ol]
> 5000 nM | CC(C)c1cc(Nc2cccc(-c3cnccn3)c2)nc(N)n1 [Compound 198, 6-isopropyl-N4-(3-(pyrazin-2-yl)phenyl)pyrimidine-2,4-diamine]

IC50 | Structure (SMILES)
500 to 5000 nM | CNc1nc(N)cc(N2CCNC(c3ccccc3Br)C2)n1 (single isomer, unassigned) [Compound 113, (R/S)-6-(3-(2-bromophenyl)piperazin-1-yl)-N2-methylpyrimidine-2,4-diamine]
< 500 nM | CCOc1ccc(Br)c(C2CN(c3cc(N)nc(N)n3)CCN2)c1 (single isomer, unassigned) [Compound 24, (S/R)-6-(3-(2-bromo-5-ethoxyphenyl)piperazin-1-yl)pyrimidine-2,4-diamine]
500 to 5000 nM | Nc1cc(N2CCN(CCO)[C@H](c3ccccc3Br)C2)nc(NC2CC2)n1 (stereo in doubt) [Compound 70, (R/S)-2-(4-(6-amino-2-(cyclopropylamino)pyrimidin-4-yl)-2-(2-bromophenyl)piperazin-1-yl)ethan-1-ol]
500 to 5000 nM | CC(C)c1cc(N2CCNC(c3cc(N4CC(CO)C4)ccc3Br)C2)nc(N)n1 (single isomer, unassigned) [Compound 31, (S/R)-(1-(3-(4-(2-amino-6-isopropylpyrimidin-4-yl)piperazin-2-yl)-4-bromophenyl)azetidin-3-yl)methanol]
< 500 nM | CN(C)CCCNC(=O)c1ccc(-c2cc(O)c3ncccc3c2)cn1 [Compound 295, N-(3-(dimethylamino)propyl)-5-(8-hydroxyquinolin-6-yl)picolinamide]
500 to 5000 nM | COC1CCN(C(=O)c2cccc(-c3ccc4ccnc(N)c4c3)c2)CC1 [Compound 346, (3-(1-aminoisoquinolin-7-yl)phenyl)(4-methoxypiperidin-1-yl)methanone]
500 to 5000 nM | Nc1nc(NC2CC2)nc(N2CCN[C@@H](c3ccccc3Br)C2)n1 (stereo in doubt) [Compound 65, (S/R)-6-(3-(2-bromophenyl)piperazin-1-yl)-N2-cyclopropyl-1,3,5-triazine-2,4-diamine]
500 to 5000 nM | Cc1cc(N2CCCC(c3cnc4ccccn34)C2)nc(N)n1 (centres unmarked) [Compound 147, 4-(3-(imidazo[1,2-a]pyridin-3-yl)piperidin-1-yl)-6-methylpyrimidin-2-amine]
500 to 5000 nM | CC(C)c1cc(N2CCN(C)[C@@H](c3ccccc3Br)C2)nc(N)n1 (racemic) [Compound 161, (S/R)-4-(3-(2-bromophenyl)-4-methylpiperazin-1-yl)-6-isopropylpyrimidin-2-amine]
500 to 5000 nM | CC(C)c1cc(N2CCN(C)C(c3ccccc3Br)C2)nc(N)n1 (single isomer, unassigned) [Compound 160, (R/S)-4-(3-(2-bromophenyl)-4-methylpiperazin-1-yl)-6-isopropylpyrimidin-2-amine]
500 to 5000 nM | Nc1cc(N2CCCC(F)(c3ccccc3Br)C2)nc(N)n1 (centres unmarked) [Compound 228, 6-(3-(2-bromophenyl)-3-fluoropiperidin-1-yl)pyrimidine-2,4-diamine]
500 to 5000 nM | Nc1nc(N2CCOC(c3ccccc3Br)C2)c2[nH]ccc2n1 (single isomer, unassigned) [Compound 46, (R/S)-4-(2-(2-bromophenyl)morpholino)-5H-pyrrolo[3,2-d]pyrimidin-2-amine]
< 500 nM | CC(C)c1cc(N2CCCC(c3cnn4ccccc34)C2)nc(N)n1 (centres unmarked) [Compound 240, 4-isopropyl-6-(3-(pyrazolo[1,5-a]pyridin-3-yl)piperidin-1-yl)pyrimidin-2-amine]
500 to 5000 nM | CN(C)CCCNC(=O)c1ccc(-c2cc(O)c3ncccc3c2)c(Cl)c1 [Compound 317, 3-chloro-N-(3-(dimethylamino)propyl)-4-(8-hydroxyquinolin-6-yl)benzamide]
500 to 5000 nM | CN(C)CCNC(=O)c1csc2ccc(-c3ccc4ccnc(N)c4c3)cc12 [Compound 355, 5-(1-aminoisoquinolin-7-yl)-N-(2-(dimethylamino)ethyl)benzo[b]thiophene-3-carboxamide]
500 to 5000 nM | CC(C)c1cc(N2CCOC(c3ccccc3Br)C2)nc(N)n1 (single isomer, unassigned) [Compound 159, (S/R)-4-(2-(2-bromophenyl)morpholino)-6-isopropylpyrimidin-2-amine]
< 500 nM | CN1CCC(CNC(=O)c2ccc(-c3cc(O)c4ncccc4c3)cc2)CC1 [Compound 300, 4-(8-hydroxyquinolin-6-yl)-N-((1-methylpiperidin-4-yl)methyl)benzamide]
< 500 nM | Cc1c(-c2ccc(Br)c([C@H]3CN(c4cc(N)nc(N)n4)CCN3)c2)cnn1C (racemic) [Compound 5, (S/R)-6-(3-(2-bromo-5-(1,5-dimethyl-1H-pyrazol-4-yl)phenyl)piperazin-1-yl)pyrimidine-2,4-diamine]
> 5000 nM | CNc1cc(N2CCCC(c3ncc4ccccn34)C2)nc(N)n1 (centres unmarked) [Compound 94, 6-(3-(imidazo[1,5-a]pyridin-3-yl)piperidin-1-yl)-N4-methylpyrimidine-2,4-diamine]
